Test results published in EP4722207A1, “OXOISOINDOLINYL-SUBSTITUTED TETRAHYDROPYRIMIDINEDIONE DERIVATIVE AND USE THEREOF” (Gluetacs Therapeutics (Shanghai) Co., Ltd., priority 2023, dated 2024).

How the values were obtained:
MV-4-11 = assay: Cell viability assay (CellTiter-Meiluncell Luminescent), tumor cell proliferation, MV-4-11; conditions: Homo sapiens, MV4-11, 96 h; for IC50: read-out: inhibitory activity (IC50, nM) against tumor cells proliferation, MV-4-11; for inhibition at 0.01 µM: read-out: Inhibition Rate at 10 nM (%); for inhibition at 0.5 µM: read-out: Inhibition Rate at 500 nM (%)
IKZF2 = target: T1, IKZF2 (Homo sapiens, UniProt Q96SW2+Q9UKS7); assay: Western-blot assay, substrate protein degradation in hPBMCs: IKZF2; format: cell-based; conditions: for IKZF2 substrate protein remaining %: compounds at 50 nM and 500 nM, 24 hours; for substrate protein remaining % IKZF2: 24 hours of compound treatment, 50 nM and 500 nM
T1 construct: effects of the compounds of the present disclosure on the expression of target proteins in cells; endogenous in cells; host or cells: human PBMCs (hPBMCs)

CK1α = target: T2, CK1α (Homo sapiens, UniProt P48729+Q96SW2); assay: Western-blot assay, substrate protein degradation in hPBMCs: CK1α; format: cell-based; conditions: for CK1α substrate protein remaining %: compounds at 50 nM and 500 nM, 24 hours; for substrate protein remaining % CK1α: 24 hours of compound treatment, 50 nM and 500 nM
T2 construct: effects of the compounds of the present disclosure on the expression of target proteins in cells; endogenous in cells; host or cells: human PBMCs (hPBMCs)

IKZF3 = target: T3, IKZF3 (Homo sapiens, UniProt Q96SW2+Q9UKT9); assay: Western-blot assay, substrate protein degradation in hPBMCs: IKZF3; format: cell-based; conditions: for IKZF3 substrate protein remaining %: compounds at 50 nM and 500 nM, 24 hours; for substrate protein remaining % IKZF3: 24 hours of compound treatment, 50 nM and 500 nM
T3 construct: effects of the compounds of the present disclosure on the expression of target proteins in cells; endogenous in cells; host or cells: human PBMCs (hPBMCs)

WEE1 = target: T4, WEE1 (Homo sapiens, UniProt P30291+Q96SW2); assay: Western-blot assay, substrate protein degradation in hPBMCs: WEE1; format: cell-based; conditions: for WEE1 substrate protein remaining %: compounds at 50 nM and 500 nM, 24 hours; for substrate protein remaining % WEE1: 24 hours of compound treatment, 50 nM and 500 nM
T4 construct: effects of the compounds of the present disclosure on the expression of target proteins in cells; endogenous in cells; host or cells: human PBMCs (hPBMCs)

GSPT1 = target: T5, GSPT1 (Homo sapiens, UniProt P15170+Q96SW2); assay: Western-blot assay, substrate protein degradation in hPBMCs: GSPT1; format: cell-based; conditions: for GSPT1 substrate protein remaining %: compounds at 50 nM and 500 nM, 24 hours; for substrate protein remaining % GSPT1: 24 hours of compound treatment, 50 nM and 500 nM
T5 construct: effects of the compounds of the present disclosure on the expression of target proteins in cells; endogenous in cells; host or cells: human PBMCs (hPBMCs)

IKZF1 = target: T6, IKZF1 (Homo sapiens, UniProt Q13422+Q96SW2); assay: Western-blot assay, substrate protein degradation in hPBMCs: IKZF1; format: cell-based; conditions: for IKZF1 substrate protein remaining %: compounds at 50 nM and 500 nM, 24 hours; for substrate protein remaining % IKZF1: 24 hours of compound treatment, 50 nM and 500 nM
T6 construct: effects of the compounds of the present disclosure on the expression of target proteins in cells; endogenous in cells; host or cells: human PBMCs (hPBMCs)

H292 = assay: Cell viability assay (CellTiter-Meiluncell Luminescent), tumor cell proliferation, H292; conditions: Homo sapiens, NCI-H292, 96 h; for inhibition at 0.01 µM: read-out: Inhibition Rate at 10 nM (%); for inhibition at 0.5 µM: read-out: Inhibition Rate at 500 nM (%)
Method: The tumor cells used herein were cultured in a cell culture medium listed in table 2 at 37°C in an incubator with 5% CO2. Prior to experimentation, all cell lines used were correctly identified by STR profiling, and tested negative for mycoplasma contamination using a mycoplasma detection kit through routine screenings.
On the following day, the test compounds of the present disclosure were subjected to serial dilution. […] Subsequently, 0.5 µL of the test compound dilution was transferred into the 96-well plate containing the cells, with each well containing 100 µL of cell culture medium. […] Into the 96-well plate, the diluted test compounds and corresponding detection reagents were added, resulting in final test compound concentrations of 500 nM and 10 nM, respectively. The experimental procedure is described below using the diluted 2 µM test compound as an example.
After the cells were treated with the compounds of the present disclosure for a specified period, the cell viability assay reagent was added to the culture medium according to the kit's instructions to determine cell viability. […] All controls were treated using the same procedure as the compounds of the present disclosure. The growth inhibition curves for the compounds of the present disclosure were plotted using Prism GraphPad software, and the IC50 values were calculated therefrom.

T6 sequence (Q13422 whole entry): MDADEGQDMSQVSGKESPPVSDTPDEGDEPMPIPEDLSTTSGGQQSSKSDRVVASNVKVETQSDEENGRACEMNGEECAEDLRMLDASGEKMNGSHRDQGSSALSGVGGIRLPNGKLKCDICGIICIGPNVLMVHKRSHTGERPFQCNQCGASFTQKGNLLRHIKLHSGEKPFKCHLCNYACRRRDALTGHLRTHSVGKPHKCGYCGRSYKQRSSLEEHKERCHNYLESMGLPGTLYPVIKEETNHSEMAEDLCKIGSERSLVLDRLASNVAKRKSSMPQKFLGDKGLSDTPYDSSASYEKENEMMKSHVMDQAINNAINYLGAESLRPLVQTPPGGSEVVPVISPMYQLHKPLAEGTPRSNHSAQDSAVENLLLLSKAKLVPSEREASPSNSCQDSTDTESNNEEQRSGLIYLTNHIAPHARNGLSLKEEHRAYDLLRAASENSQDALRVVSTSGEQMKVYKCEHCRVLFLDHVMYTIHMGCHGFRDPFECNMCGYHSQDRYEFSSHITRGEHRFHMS
T6 sequence (Q96SW2 whole entry): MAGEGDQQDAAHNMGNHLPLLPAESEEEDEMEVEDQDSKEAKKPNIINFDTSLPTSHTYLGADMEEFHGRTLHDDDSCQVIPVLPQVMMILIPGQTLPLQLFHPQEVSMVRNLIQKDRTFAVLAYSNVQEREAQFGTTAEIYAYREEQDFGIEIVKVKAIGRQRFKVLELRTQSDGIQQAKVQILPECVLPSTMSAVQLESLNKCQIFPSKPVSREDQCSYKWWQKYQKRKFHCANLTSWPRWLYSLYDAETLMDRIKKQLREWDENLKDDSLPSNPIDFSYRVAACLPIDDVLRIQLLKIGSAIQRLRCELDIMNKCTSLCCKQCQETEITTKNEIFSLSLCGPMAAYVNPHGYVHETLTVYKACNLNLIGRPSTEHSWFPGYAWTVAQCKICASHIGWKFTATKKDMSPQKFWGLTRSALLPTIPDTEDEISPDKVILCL
T6 sequence (Q16531 whole entry partner): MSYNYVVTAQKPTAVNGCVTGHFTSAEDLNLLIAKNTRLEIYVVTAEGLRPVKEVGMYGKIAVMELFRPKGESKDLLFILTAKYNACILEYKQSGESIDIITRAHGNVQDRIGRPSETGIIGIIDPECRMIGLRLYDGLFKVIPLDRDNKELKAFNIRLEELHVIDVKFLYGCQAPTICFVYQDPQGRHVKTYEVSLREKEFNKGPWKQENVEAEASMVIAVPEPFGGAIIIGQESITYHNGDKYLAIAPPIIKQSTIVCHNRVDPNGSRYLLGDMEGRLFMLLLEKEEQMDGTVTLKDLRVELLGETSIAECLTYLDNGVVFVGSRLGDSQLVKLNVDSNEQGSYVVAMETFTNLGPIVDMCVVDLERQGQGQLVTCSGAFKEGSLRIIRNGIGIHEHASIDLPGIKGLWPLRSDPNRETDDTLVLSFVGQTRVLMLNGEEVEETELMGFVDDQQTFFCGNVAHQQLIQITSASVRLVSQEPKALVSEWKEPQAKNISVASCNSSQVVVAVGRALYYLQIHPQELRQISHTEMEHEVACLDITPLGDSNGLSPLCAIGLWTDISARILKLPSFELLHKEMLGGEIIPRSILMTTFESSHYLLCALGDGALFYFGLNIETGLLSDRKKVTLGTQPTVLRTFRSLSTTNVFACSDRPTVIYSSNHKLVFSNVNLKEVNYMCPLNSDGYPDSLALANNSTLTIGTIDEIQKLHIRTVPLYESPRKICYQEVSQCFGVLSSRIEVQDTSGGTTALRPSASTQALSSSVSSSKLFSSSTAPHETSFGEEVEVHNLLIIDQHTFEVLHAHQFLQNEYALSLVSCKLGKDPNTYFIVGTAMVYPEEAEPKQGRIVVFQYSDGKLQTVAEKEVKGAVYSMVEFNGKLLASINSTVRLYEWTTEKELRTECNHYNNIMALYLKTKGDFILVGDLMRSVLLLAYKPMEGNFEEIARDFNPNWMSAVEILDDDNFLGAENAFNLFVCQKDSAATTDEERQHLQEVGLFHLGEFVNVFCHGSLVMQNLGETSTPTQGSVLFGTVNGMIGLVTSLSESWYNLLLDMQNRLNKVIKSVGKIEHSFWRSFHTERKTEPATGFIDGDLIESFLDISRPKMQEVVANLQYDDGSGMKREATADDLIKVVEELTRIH
T1 sequence (Q9UKS7 whole entry): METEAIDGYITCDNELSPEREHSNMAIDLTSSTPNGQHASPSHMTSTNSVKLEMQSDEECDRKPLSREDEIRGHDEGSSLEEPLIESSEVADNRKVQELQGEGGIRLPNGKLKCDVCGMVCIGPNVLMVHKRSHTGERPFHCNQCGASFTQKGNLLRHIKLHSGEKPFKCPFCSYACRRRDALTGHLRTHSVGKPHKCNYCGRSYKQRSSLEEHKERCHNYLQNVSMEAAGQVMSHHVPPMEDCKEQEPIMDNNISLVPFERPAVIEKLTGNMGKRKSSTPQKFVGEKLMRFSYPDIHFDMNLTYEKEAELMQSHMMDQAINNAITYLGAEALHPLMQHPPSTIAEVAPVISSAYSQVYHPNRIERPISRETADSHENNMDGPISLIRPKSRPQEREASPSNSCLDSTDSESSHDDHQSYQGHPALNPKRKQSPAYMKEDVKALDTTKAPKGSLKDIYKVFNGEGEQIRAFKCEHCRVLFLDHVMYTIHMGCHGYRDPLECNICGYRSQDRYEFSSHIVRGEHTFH
T1 sequence (Q96SW2 whole entry): as the sequence (Q96SW2 whole entry) above
T1 sequence (Q16531 whole entry partner): as the sequence (Q16531 whole entry partner) above
T3 sequence (Q9UKT9 whole entry): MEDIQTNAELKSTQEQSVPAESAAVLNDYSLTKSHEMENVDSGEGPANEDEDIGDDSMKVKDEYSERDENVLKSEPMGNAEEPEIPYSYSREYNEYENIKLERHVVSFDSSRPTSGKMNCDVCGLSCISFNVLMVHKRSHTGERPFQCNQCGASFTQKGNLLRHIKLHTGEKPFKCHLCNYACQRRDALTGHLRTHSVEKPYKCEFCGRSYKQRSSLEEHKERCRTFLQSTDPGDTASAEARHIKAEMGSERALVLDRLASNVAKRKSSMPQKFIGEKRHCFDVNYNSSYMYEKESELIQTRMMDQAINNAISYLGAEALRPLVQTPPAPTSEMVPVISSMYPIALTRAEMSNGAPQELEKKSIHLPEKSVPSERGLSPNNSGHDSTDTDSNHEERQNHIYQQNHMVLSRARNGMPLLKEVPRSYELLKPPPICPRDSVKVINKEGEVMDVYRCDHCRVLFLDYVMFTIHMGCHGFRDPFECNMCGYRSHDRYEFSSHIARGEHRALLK
T3 sequence (Q96SW2 whole entry): as the sequence (Q96SW2 whole entry) above
T3 sequence (Q16531 whole entry partner): as the sequence (Q16531 whole entry partner) above
T4 sequence (P30291 whole entry): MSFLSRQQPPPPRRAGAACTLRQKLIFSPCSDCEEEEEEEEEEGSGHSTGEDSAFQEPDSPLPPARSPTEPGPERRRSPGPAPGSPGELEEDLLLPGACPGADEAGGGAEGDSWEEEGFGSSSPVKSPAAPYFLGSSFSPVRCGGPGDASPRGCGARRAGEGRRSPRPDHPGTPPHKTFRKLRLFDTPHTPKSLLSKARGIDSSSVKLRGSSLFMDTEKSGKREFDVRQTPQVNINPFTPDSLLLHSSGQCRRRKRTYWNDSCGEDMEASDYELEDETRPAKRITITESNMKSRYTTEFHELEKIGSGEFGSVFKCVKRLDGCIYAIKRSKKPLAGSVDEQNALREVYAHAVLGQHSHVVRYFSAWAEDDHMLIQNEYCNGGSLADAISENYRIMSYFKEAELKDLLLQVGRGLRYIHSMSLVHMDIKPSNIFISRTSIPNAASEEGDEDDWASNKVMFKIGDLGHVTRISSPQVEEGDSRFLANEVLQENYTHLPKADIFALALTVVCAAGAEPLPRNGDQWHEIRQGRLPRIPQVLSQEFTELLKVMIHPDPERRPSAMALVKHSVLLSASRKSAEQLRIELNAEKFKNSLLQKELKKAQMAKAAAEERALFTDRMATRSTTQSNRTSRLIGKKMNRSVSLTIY
T4 sequence (Q96SW2 whole entry): as the sequence (Q96SW2 whole entry) above
T4 sequence (Q16531 whole entry partner): as the sequence (Q16531 whole entry partner) above
T5 sequence (P15170 whole entry): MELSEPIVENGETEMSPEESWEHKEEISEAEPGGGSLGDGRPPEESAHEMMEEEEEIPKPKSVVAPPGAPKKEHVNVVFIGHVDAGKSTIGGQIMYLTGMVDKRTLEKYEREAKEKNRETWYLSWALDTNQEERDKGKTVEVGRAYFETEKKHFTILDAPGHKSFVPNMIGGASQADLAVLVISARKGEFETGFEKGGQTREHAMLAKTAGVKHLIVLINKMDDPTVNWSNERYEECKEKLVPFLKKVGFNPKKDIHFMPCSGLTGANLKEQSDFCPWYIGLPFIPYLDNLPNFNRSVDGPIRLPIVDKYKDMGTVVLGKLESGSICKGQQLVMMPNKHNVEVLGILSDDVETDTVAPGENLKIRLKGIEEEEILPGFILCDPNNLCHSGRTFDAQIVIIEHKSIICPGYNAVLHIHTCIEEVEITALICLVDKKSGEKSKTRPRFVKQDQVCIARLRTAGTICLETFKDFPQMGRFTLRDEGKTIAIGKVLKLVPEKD
T5 sequence (Q96SW2 whole entry): as the sequence (Q96SW2 whole entry) above
T5 sequence (Q16531 whole entry partner): as the sequence (Q16531 whole entry partner) above

| IC50 (MV-4-11) | Compound | IKZF2 substrate protein remaining % (IKZF2) | CK1α substrate protein remaining % (CK1α) | IKZF3 substrate protein remaining % (IKZF3) | WEE1 substrate protein remaining % (WEE1) | GSPT1 substrate protein remaining % (GSPT1) | IKZF1 substrate protein remaining % (IKZF1) | inhibition at 0.01 µM (MV-4-11) | inhibition at 0.5 µM (MV-4-11) | substrate protein remaining % IKZF2 (IKZF2) | substrate protein remaining % CK1α (CK1α) | substrate protein remaining % IKZF3 (IKZF3) | substrate protein remaining % WEE1 (WEE1) | substrate protein remaining % GSPT1 (GSPT1) | substrate protein remaining % IKZF1 (IKZF1) | inhibition at 0.01 µM (H292) | inhibition at 0.5 µM (H292) |
| --- | --- | --- | --- | --- | --- | --- | --- | --- | --- | --- | --- | --- | --- | --- | --- | --- | --- |
| 100 to 300 nM | O=C1CCN(N2Cc3cc(CN4CCC(c5cccc(Br)c5)CC4)ccc3C2=O)C(=O)N1 [GT-06885, 1-(5-((4-(3-bromophenyl)piperidin-1-yl)methyl)-1-oxoisoindolin-2-yl)dihydropyrimidine-2,4(1H,3H)-dione] | A ("A" is defined as 0% ≤ substrate protein remaining % ≤ 80%) | B ("B" is defined as 80%< substrate protein remaining %≤ 100%) | B ("B" is defined as 80%< substrate protein remaining %≤ 100%) | B ("B" is defined as 80%< substrate protein remaining %≤ 100%) | A ("A" is defined as 0% ≤ substrate protein remaining % ≤ 80%) | A ("A" is defined as 0% ≤ substrate protein remaining % ≤ 80%) | – | – | – | – | – | – | – | – | – | – |
| 500 to 1000 nM | O=C1CCN(N2Cc3cc(CN4CCC(c5cccc(C(F)(F)F)c5)CC4)ccc3C2=O)C(=O)N1 [GT-06892, 1-(1-oxo-5-((4-(3-(trifluoromethyl)phenyl)piperidin-1-yl)methyl)isoindolin-2-yl)dihydropyrimidine-2,4(1H,3H)-dione] | A ("A" is defined as 0% ≤ substrate protein remaining % ≤ 80%) | B ("B" is defined as 80%< substrate protein remaining %≤ 100%) | B ("B" is defined as 80%< substrate protein remaining %≤ 100%) | B ("B" is defined as 80%< substrate protein remaining %≤ 100%) | A ("A" is defined as 0% ≤ substrate protein remaining % ≤ 80%) | A ("A" is defined as 0% ≤ substrate protein remaining % ≤ 80%) | – | – | – | – | – | – | – | – | – | – |
| – | O=C1CCN(N2Cc3cc(CN4CCN(c5ncnc6sc(-c7ccccc7)cc56)CC4)ccc3C2=O)C(=O)N1 [GT-08064, 1-(1-oxo-5-((4-(6-phenylthieno[2,3-d]pyrimidin-4-yl)piperazin-1-yl)methyl)isoindolin-2-yl)dihydropyrimidine-2,4(1H,3H)-dione] | – | – | – | – | – | – | 25 to 30% | 10 to 18% | A (0% ≤ substrate protein remaining % ≤ 80%) | B (80%< substrate protein remaining %≤ 100%) | B (80%< substrate protein remaining %≤ 100%) | B (80%< substrate protein remaining %≤ 100%) | B (80%< substrate protein remaining %≤ 100%) | B (80%< substrate protein remaining %≤ 100%) | – | – |
| – | Cc1nc(N2CCN(Cc3ccc4c(c3)CN(N3CCC(=O)NC3=O)C4=O)CC2)c2ccsc2n1 [GT-08067, 1-(5-((4-(2-methylthieno[2,3-d]pyrimidin-4-yl)piperazin-1-yl)methyl)-1-oxoisoindolin-2-yl)dihydropyrimidine-2,4(1H,3H)-dione] | – | – | – | – | – | – | 60 to 80% | 40 to 60% | A (0% ≤ substrate protein remaining % ≤ 80%) | B (80%< substrate protein remaining %≤ 100%) | B (80%< substrate protein remaining %≤ 100%) | B (80%< substrate protein remaining %≤ 100%) | B (80%< substrate protein remaining %≤ 100%) | B (80%< substrate protein remaining %≤ 100%) | 20 to 40% | 20 to 40% |
| – | Cc1nc(N2CCN(Cc3ccc4c(c3)CN(N3CCC(=O)NC3=O)C4=O)CC2)c2c3c(sc2n1)CCCC3 [GT-08068, 1-(5-((4-(2-methyl-5,6,7,8-tetrahydrobenzo[4,5]thieno[2,3-d]pyrimidin-4-yl)piperazin-1-yl)methyl)-1-oxoisoindolin-2-yl)dihydropyrimidine-2,4(1H,3H)-dione] | – | – | – | – | – | – | 18 to 25% | 18 to 25% | A (0% ≤ substrate protein remaining % ≤ 80%) | A (0% ≤ substrate protein remaining % ≤ 80%) | B (80%< substrate protein remaining %≤ 100%) | B (80%< substrate protein remaining %≤ 100%) | B (80%< substrate protein remaining %≤ 100%) | B (80%< substrate protein remaining %≤ 100%) | 20 to 40% | 20 to 40% |
| – | O=C1CCN(N2Cc3cc(CN4CCN(c5ncnc6sc7c(c56)CCCC7)CC4)ccc3C2=O)C(=O)N1 [GT-08077, 1-(1-oxo-5-((4-(5,6,7,8-tetrahydrobenzo[4,5]thieno[2,3-d]pyrimidin-4-yl)piperazin-1-yl)methyl)isoindolin-2-yl)dihydropyrimidine-2,4(1H,3H)-dione] | – | – | – | – | – | – | 25 to 30% | 25 to 30% | B (80%< substrate protein remaining %≤ 100%) | A (0% ≤ substrate protein remaining % ≤ 80%) | B (80%< substrate protein remaining %≤ 100%) | B (80%< substrate protein remaining %≤ 100%) | A (0% ≤ substrate protein remaining % ≤ 80%) | B (80%< substrate protein remaining %≤ 100%) | – | – |
| – | Cc1cc2c(N3CCN(Cc4ccc5c(c4)C(=O)N(N4CCC(=O)NC4=O)C5=O)CC3)ncnc2s1 [GT-08092, 2-(2,4-dioxotetrahydropyrimidin-1(2H)-yl)-5-((4-(6-methylthieno[2,3-d]pyrimidin-4-yl)piperazin-1-yl)methyl)isoindoline-1,3-dione] | – | – | – | – | – | – | 10 to 18% | 30 to 40% | B (80%< substrate protein remaining %≤ 100%) | A (0% ≤ substrate protein remaining % ≤ 80%) | B (80%< substrate protein remaining %≤ 100%) | A (0% ≤ substrate protein remaining % ≤ 80%) | A (0% ≤ substrate protein remaining % ≤ 80%) | B (80%< substrate protein remaining %≤ 100%) | – | – |
| – | Cc1sc2ncnc(N3CCCN(Cc4ccc5c(c4)C(=O)N(N4CCC(=O)NC4=O)C5=O)CC3)c2c1C [GT-08095, 5-((4-(5,6-dimethylthieno[2,3-d]pyrimidin-4-yl)-1,4-diazepan-1-yl)methyl)-2-(2,4-dioxotetrahydropyrimidin-1(2H)-yl)isoindoline-1,3-dione] | – | – | – | – | – | – | 25 to 30% | 18 to 25% | B (80%< substrate protein remaining %≤ 100%) | A (0% ≤ substrate protein remaining % ≤ 80%) | B (80%< substrate protein remaining %≤ 100%) | A (0% ≤ substrate protein remaining % ≤ 80%) | B (80%< substrate protein remaining %≤ 100%) | B (80%< substrate protein remaining %≤ 100%) | – | – |
| – | O=C1CCN(N2C(=O)c3ccc(CN4CCC(c5ncnc6sccc56)CC4)cc3C2=O)C(=O)N1 [GT-08106, 2-(2,4-dioxotetrahydropyrimidin-1(2H)-yl)-5-((4-(thieno[2,3-d]pyrimidin-4-yl)piperidin-1-yl)methyl)isoindoline-1,3-dione] | – | – | – | – | – | – | 10 to 18% | 18 to 25% | B (80%< substrate protein remaining %≤ 100%) | B (80%< substrate protein remaining %≤ 100%) | B (80%< substrate protein remaining %≤ 100%) | A (0% ≤ substrate protein remaining % ≤ 80%) | A (0% ≤ substrate protein remaining % ≤ 80%) | B (80%< substrate protein remaining %≤ 100%) | – | – |
| – | Cc1cc2c(C3CCN(Cc4ccc5c(c4)C(=O)N(N4CCC(=O)NC4=O)C5=O)CC3)ncnc2s1 [GT-08107, 2-(2,4-dioxotetrahydropyrimidin-1(2H)-yl)-5-((4-(6-methylthieno[2,3-d]pyrimidin-4-yl)piperidin-1-yl)methyl)isoindoline-1,3-dione] | – | – | – | – | – | – | 30 to 40% | 40 to 60% | A (0% ≤ substrate protein remaining % ≤ 80%) | A (0% ≤ substrate protein remaining % ≤ 80%) | A (0% ≤ substrate protein remaining % ≤ 80%) | A (0% ≤ substrate protein remaining % ≤ 80%) | A (0% ≤ substrate protein remaining % ≤ 80%) | A (0% ≤ substrate protein remaining % ≤ 80%) | 5 to 10% | 10 to 15% |
